Reference: BindingDB's records for doi:10.1021/bi7018282 (Cornell University, 2008)

Target: T1, Thiamine-binding periplasmic protein (Escherichia coli (strain K12), UniProt P31550)
T1 sequence (P31550 whole entry): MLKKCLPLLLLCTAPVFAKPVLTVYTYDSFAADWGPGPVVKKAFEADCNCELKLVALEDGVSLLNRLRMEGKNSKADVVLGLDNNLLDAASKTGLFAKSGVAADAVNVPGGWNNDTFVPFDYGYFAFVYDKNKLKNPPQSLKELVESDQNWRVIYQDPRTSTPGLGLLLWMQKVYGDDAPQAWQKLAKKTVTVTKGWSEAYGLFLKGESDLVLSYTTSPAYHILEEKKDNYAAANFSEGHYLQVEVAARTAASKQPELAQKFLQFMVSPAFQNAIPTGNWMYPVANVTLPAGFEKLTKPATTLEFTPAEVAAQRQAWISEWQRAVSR
Experiment: Titration Assay
Method: the kd for ThOH, ThMP and ThDP were determined using titration experiments in which the change in the intrinsic protein fluorescence was monitored as a function of ligand concentration.

SMILES: Cc1ncc(C[n+]2csc(CCO[P@](=O)(O)OP(=O)(O)O)c2C)c(N)n1 [ThDP]
- Kd: 7.4 nM

SMILES: Cc1ncc(C[n+]2csc(CCO)c2C)c(N)n1 [Vitamin B 1]
- Kd: 3.8 nM
